{"source": "patent US20240165259A1", "about": "“BIOORTHOGONAL REACTION SUITABLE FOR CLICK/UNCLICK APPLICATIONS” (DANA-FARBER CANCER INSTITUTE, INC., priority 2021, published 2024)", "key": {"[1]": {"target": "T1, lysozyme-COT 15 in HEK293T cell lysate (Gallus gallus, UniProt P00698)", "T1 construct": "purchased", "T1 sequence (P00698 19-147)": "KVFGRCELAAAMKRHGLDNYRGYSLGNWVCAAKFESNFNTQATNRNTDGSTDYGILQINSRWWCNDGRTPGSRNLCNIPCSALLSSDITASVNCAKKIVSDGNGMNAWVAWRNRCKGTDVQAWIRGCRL", "assay": "Protein labeling in the presence of HEK293T cell lysate", "format": "biochemical", "conditions": "13 and lysozyme-COT 15, HEK293T cell lysate, PBS, 2 hours", "description": "There appeared to be no cross-reactivity between dialkylhydroxylamine and other proteins under these conditions.\n(§1) Cell Culture: HEK-293T cells were cultured in Dulbecco's Modified Eagle Media (DMEM, Corning®) containing 10% fetal bovine serum (FBS, Sigma), 100 units/mL penicillin, and 0.1 mg/mL streptomycin (Sigma) in a humidified chamber at 37° C. with 5% CO2. Cells were passaged and dissociated with 0.25% trypsin, 0.1% ethylenediaminetetraacetic acid (EDTA) in Hanks' balanced salt solution (HBSS) (Corning®). Cells tested negative for […] by the MycoAlert™ PLUS Mycoplasma Detection Kit (Lonza) following the manufacturer's protocol.\nCell Lysate: Cell culture media was aspirated prior to lysis. Cells (10 cm dish, ˜80% confluency) was lysed by adding lysis buffer (1.0 mL, 4° C.; 150 mM NaCl, 50 mM Tris (pH 8.0), 1% triton X-100). After centrifugation (13,000×g) at 4° C., the supernatant was transferred to a clean tube, and the protein concentration was determined by BCA (bicinchoninic acid) protein assay (Pierce™ BCA Protein Assay Kit). […]\nProtein Labeling Experiments: Lysozyme-COT 15 (0.75 μg, 5.0 μL, 0.15 mg/mL in deionized water) was aliquoted to form 4 samples. […] In-gel fluorescence was imaged with a Typhoon™ FLA 9500 (GE) at 532 nm with a photomultiplier tube (PMT) setting of 500 V. The experiment was carried out in triplicate."}, "[2]": {"test_system": "cell surface HaloTag-GFP expressed on HEK293T cells", "assay": "Live cell labeling experiment (confocal microscopy)", "format": "cell-based", "conditions": "10 μM 21′, then 10 μM 22′ for 1 hour, fixed", "description": "Live cell labeling by hydroamination was explored. HEK293T cells were transiently transfected with a cell surface HaloTag-GFP construct, treated with 10 μM HaloTag linker-conjugated difluoropropargyl ether 21′, washed, and incubated with 10 μM TAMRA-conjugated hydroxylamine 22′ for 1 hour. The cells were then fixed and visualized by confocal microscopy.\nas §1, with “Medium” for “Media”, “EDTA” for “ethylenediaminetetraacetic acid (EDTA)”, “HBSS” for “Hanks' balanced salt solution (HBSS)”, “MycoAlert” for “MycoAlert™”\nPreparation for 12-Well Plate: Coverslips (15 mm circle, thickness 0.13-0.17 mm) were acid-washed according to the Cold Spring Harbor protocol (Fischer et al., Cold Spring Harb. Protoc. 2008:pdb.prot4988 (2008)). A coverslip was added to each well in a 12-well plate followed by an aqueous solution of poly-D-lysine (0.1 mg/mL, 30-70 kDa, 800 μL). The plate was gently shaken to distribute the solution evenly, incubated at room temperature for 1 hour, washed using 1 mL of autoclaved deionized water for each well, and dried overnight. […]"}}, "data": [{"smiles": "CN(O)CCOCCNC(=O)c1ccc2c(c1)C1(OC2=O)c2ccc(N(C)C)cc2Oc2cc(N(C)C)ccc21", "note": "[compound 13, 3′,6′-bis(dimethylamino)-N-(2-(2-(hydroxy(methyl)amino)ethoxy)ethyl)-3-oxo-3H-spiro[isobenzofuran-1,9′-xanthene]-6-carboxamide]", "values": [{"measurement": "labeling specificity in the presence of cell lysate", "setting": "[1]", "result": "lysozyme was labeled exclusively"}, {"measurement": "live cell labeling (TAMRA signal)", "setting": "[2]", "result": "localized at the cell surface and co-localized with the GFP signal of transfected cells"}]}]}
